{"source": "patent US6146628A", "about": "“Biotherapeutic agents comprising recombinant PAP and PAP mutants” (priority 1995, dated 2000)", "key": {"[1]": {"test_system": "clinical HIV-1 isolates", "assay": "In vitro susceptibility of clinical HIV-1 isolates to zidovudine (IC50)", "format": "cell-based", "text": "(§1) A total of 22 clinical HIV-1 isolates were studied, including 8 isolates from four seropositive asymptomatic individuals, 6 isolates from three patients with the AIDS-related complex, and 8 isolates from four patients with AIDS (two pairs of zidovudine-resistant and zidovudine-susceptible reference isolates were also included in this group). Erice et al., Antimicrob. Ag. Chemother., 37, 835 (1993). Fifteen isolates were from untreated individuals, and seven isolates were obtained after 24 to 104 weeks of treatment with zidovudine, alone or alternating with zalcitabine. […] The mean αCD4-PAP IC50 s in this group were 11×10^-3 nM (range, 2.5×10^-3 to 25×10^-3 nM) for isolates from zidovudine-untreated individuals and 9×10^-3 nM for the isolate obtained after 48 weeks of zidovudine therapy. […] The mean αCD4-PAP values in this group were 137×10^-3 nM (range, 39×10^-3 to 212×10^-3 nM) for isolates from untreated individuals and 19×10^-3 nM (range, 2×10^-3 to 42×10^-3 nM) for isolates from treated patients. […] The mean αCD4-PAP values were 43×10^-3 nM for the 17 isolates susceptible to zidovudine and 19×10^-3 nM for the 5 isolates that were resistant to zidovudine. All of the HIV-1 isolates studied had IC50 s greater than 0.5 nM for unconjugated PAP, the αCD19-PAP immunoconjugate, and monoclonal antibody αCD4. In 18 αCD4-PAP experiments, cell viability ranged from 97.5% (for cells not exposed to the immunoconjugate)to 87.2% (for cells exposed to 5 nM αCD4-PAP). Cell viabilities in 22 zidovudine susceptible assays ranged from 90.9% (cells not exposed to zidovudine) to 90.75% (cells exposed to 10,000 mM zidovudine). […]\nThe in vitro susceptibility of clinical HIV-1 isolates to the PAP, PAP mutants, and anti-CD4 PAP immunoconjugates will be measured and compared using an RT inhibition assay, as described by Schwartz et al., cited supra. In brief, 5×10^6 PHA-stimulated seronegative donor peripheral blood mononuclear cells will be infected with HIV-1 by incubation in 1 mL of a stock virus preparation for 3 h at 37° C./5% CO2. After infection, cells will be transferred to 96-well tissue culture plates (40 μL/well in triplicate wells) containing different concentrations of PAP or αCD4 PAP diluted in RPMI 1640 supplemented with 20% fetal calf serum, 5% interleukin 2 (Cellular Products), 160 U/mL penicillin, and 160 μg/mL streptomycin. αCD4 PAP treatment will continue for 5 days to mimic the FDA-approved clinical protocol of the ongoing phase II PAP immunoconjugate trials for treatment of B-lineage lymphoid malignancies (BB-IND #3864). At the end of the incubation period, culture supernatants will be removed and assayed for RT activity using the method of Schwartz and colleagues. Schwartz et al., cited supra. IC50 values (concentration of drug needed to reduce RT activity by 50%) will be calculated from the RT activities of untreated versus treated samples using the SAS Regression Analysis Program (SAS Institute, Cary, N.C.). ZDV resistance will be defined as an ZDV-IC50value of greater than 1 μM. Standard statistical methods will be used including Student's t-tests to compare the αCD4 PAP sensitivity of ZDV-resistant and ZDV-sensitive HIV-1 isolates. All computations will be performed using an updated statistics program for the Macintosh (Statworks Statistics Program, Cricket Software, Philadelphia, Pa.)."}, "[2]": {"assay": "in vitro", "format": "cell-based", "settings": "cells exposed to zidovudine; 22 assays; 90.9% for cells not exposed; read-out: cell viability", "text": "as §1, with “αCD4.” for “αCD4. In 18 αCD4-PAP experiments, cell viability ranged from 97.5% (for cells not exposed to the immunoconjugate)to 87.2% (for cells exposed to 5 nM αCD4-PAP). Cell viabilities in 22 zidovudine susceptible assays ranged from 90.9% (cells not exposed to zidovudine) to 90.75% (cells exposed to 10,000 mM zidovudine).”"}, "[3]": {"test_system": "clinical HIV-1 strains (AT-101, AT-328, AT-332)", "format": "in vivo, Hu-PBL-SCID mice", "description": "Hu-PBL-SCID mice were generated by reconstituting SCID mice by intraperitoneal injection of 10×10^6 peripheral blood mononuclear cells from a single EBV-seronegative volunteer donor. Two weeks after inoculation of cells, mice were challenged by intraperitoneal injection of 1.47.-7×10^4 median tissue culture infectious doses (TCID50) of cell free virus. Three different clinical HIV-1 strains (AT-101, AT-328, AT-332) were used. […] SCID mice were infected with HIV-1 isolates in a Biosafety Level 3 containment facility and all manipulations were performed in a biosafety cabinet. Non-toxic doses of anti-CD4-PAP (20% -50% of LD10) were administered intraperitoneally by injecting half of the total dose as a bolus and delivering the remainder i.p. over 2 weeks using Alzet micro-osmotic pumps. […] Two weeks after infection with HIV-1, mice were electively killed and fresh peritoneal lavage cells as well as spleen cells were isolated, cocultured with phytohemagglutinin(PHA)-stimulated human peripheral blood mononuclear cells from an HIV-1 antibody negative donor, and culture supernatants were tested every 3-4 days for a maximum of 28 days for the presence of HIV-1 antigen with a commercially available enzyme immunoassay (Abbott Laboratories, North Chicago, Ill.) that detects primarily the core p24 antigen of HIV-1, as previously described by Goudsmit et al. in J. Infectious Diseases, 155, 558 (1987). In addition to this culture method, we also isolated the DNA from the peritoneal lavage cells as well as splenocytes for detection of HIV-1 DNA by PCR amplification of a 115 b.p. sequence in the gag region of the HIV-1 genome using two 29-base oligonucleotide primers, SK38 and SK39, that flank the region to be amplified. […] DNA samples were also examined for the presence of human DNA by PCR amplification of a 110-bp fragment from the first exon of the human β-globin gene using two 20-base oligonucleotide primers, PCO3 and PCO4, that flank the region to be amplified, as previously described in detail by Chelstrom et al. Blood, 84, 20 (1994). […]"}, "[4]": {"settings": "ZDV in the water at 1 mg/mL, of the remaining 7 of 10 mice"}}, "note": "Where two headings read alike, the source gives them in different places."}
{"compound": "Cc1cn([C@H]2C[C@H](N=[N+]=[N-])[C@@H](CO)O2)c(=O)[nH]c1=O", "note": "[zidovudine, 3'-azido-3'-deoxythymidine]", "values": [{"measurement": "IC50", "setting": "[1]; Human immunodeficiency virus 1, one resistant isolate, IC50 could not be calculated", "value": "> 4", "unit": "µM"}, {"measurement": "IC50", "setting": "[1]; Human immunodeficiency virus 1, read-out: mean IC50, overall, 5 isolates resistant to zidovudine", "value": 3.72, "unit": "µM"}, {"measurement": "IC50", "setting": "[1]; Human immunodeficiency virus 1, read-out: mean IC50, overall, 17 isolates susceptible to zidovudine", "value": 0.117, "unit": "µM"}, {"measurement": "IC50", "setting": "[1]; Human immunodeficiency virus 1, read-out: mean zidovudine IC50, AIDS-related complex, four zidovudine susceptible isolates", "value": 0.106, "unit": "µM"}, {"measurement": "IC50", "setting": "[1]; Human immunodeficiency virus 1, read-out: mean zidovudine IC50, isolates from seropositive asymptomatic, zidovudine-untreated patients", "value": 0.15, "unit": "µM"}, {"measurement": "IC50", "setting": "[1]; Human immunodeficiency virus 1, read-out: mean zidovudine IC50, patients with AIDS, five zidovudine susceptible strains", "value": 0.105, "unit": "µM"}, {"measurement": "IC50", "setting": "[1]; Human immunodeficiency virus 1, read-out: mean zidovudine IC50, strains from zidovudine-treated patients (7 isolates, 24 to 104 weeks of treatment)", "value": 2.5, "unit": "µM"}, {"measurement": "IC50", "setting": "[1]; Human immunodeficiency virus 1, read-out: mean zidovudine IC50, strains from zidovudine-untreated individuals (15 isolates)", "value": 0.126, "unit": "µM"}, {"measurement": "IC50", "setting": "[1]; Human immunodeficiency virus 1, read-out: zidovudine IC50, one isolate from a seropositive asymptomatic individual after 48 weeks of zidovudine therapy", "value": 0.014, "unit": "µM"}, {"measurement": "IC50", "setting": "[1]; Human immunodeficiency virus 1, read-out: zidovudine IC50 range, AIDS-related complex, four zidovudine susceptible isolates", "value": "0.024 to 0.15", "unit": "µM"}, {"measurement": "IC50", "setting": "[1]; Human immunodeficiency virus 1, read-out: zidovudine IC50 range, isolates from seropositive asymptomatic, zidovudine-untreated patients", "value": "0.001 to 0.607", "unit": "µM"}, {"measurement": "IC50", "setting": "[1]; Human immunodeficiency virus 1, read-out: zidovudine IC50 range, patients with AIDS, five zidovudine susceptible strains", "value": "0.044 to 0.166", "unit": "µM"}, {"measurement": "IC50", "setting": "[1]; Human immunodeficiency virus 1, read-out: zidovudine IC50 range, strains from zidovudine-treated patients (7 isolates)", "value": "0.014 to 6.5", "unit": "µM"}, {"measurement": "IC50", "setting": "[1]; Human immunodeficiency virus 1, read-out: zidovudine IC50 range, strains from zidovudine-untreated individuals (15 isolates)", "value": "0.001 to 0.607", "unit": "µM"}, {"measurement": "IC50", "setting": "[1]; Human immunodeficiency virus 1, read-out: zidovudine IC50s, AIDS-related complex, two resistant isolates obtained after 52 weeks of therapy", "value": "1.71 to 2.14", "unit": "µM"}, {"measurement": "susceptibility to zidovudine", "setting": "[1]; patients with AIDS, three isolates after 24 to 104 weeks of zidovudine, alone or alternating with zalcitabine", "value": "highly resistant to zidovudine"}, {"measurement": "viability", "setting": "[2]", "value": 90.8, "unit": "%"}, {"measurement": "HIV-1 negative mice", "setting": "[3]; ZDV in the water at 1 mg/mL (average 200 mg/kg/day), two weeks after infection, culture and PCR", "value": "3 of 10"}, {"measurement": "mice culture-negative but PCR-positive", "setting": "[3]; [4]", "value": 3}, {"measurement": "mice culture-positive and PCR positive", "setting": "[3]; [4]", "value": 4}]}
